Here are results for eleven compounds from US7732471B2, “6-oxazol-4-ylmetholmethoxy-alko-alkoxymethyl substituted benzoic acid derivatives forming peroxisome proliferator—activated receptor (PPAR) ligands, process for their preparation and methods of use thereof” (Sanofi-Aventis, priority 2005, dated 2010).

One assay deals with T1, human PPARgamma (Homo sapiens, UniProt P37231).
T1 construct: human PPARgamma receptor (amino acids I152-Y475); expressed in transfected cells; host or cells: HEK cells, transiently transfected with pcDNA3-GAL4-humanPPARgammaLBD
T1 sequence (P37231 182-505 limits assumed): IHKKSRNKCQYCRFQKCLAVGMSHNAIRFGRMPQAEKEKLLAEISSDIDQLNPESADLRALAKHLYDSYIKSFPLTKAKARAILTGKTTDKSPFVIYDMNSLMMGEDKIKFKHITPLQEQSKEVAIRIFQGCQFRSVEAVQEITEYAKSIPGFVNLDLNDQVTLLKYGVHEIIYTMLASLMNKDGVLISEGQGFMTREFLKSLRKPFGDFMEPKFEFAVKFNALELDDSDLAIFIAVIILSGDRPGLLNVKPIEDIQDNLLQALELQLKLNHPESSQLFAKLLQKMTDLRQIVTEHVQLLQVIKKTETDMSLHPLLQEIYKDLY
The assay can be described thus: Cellular PPARgamma assay (transiently transfected HEK cells, luciferase reporter). Format: cell-based. Conditions: HEK cells transiently transfected with GAL4-humanPPARgammaLBD, 48 h incubation, firefly/Renilla luciferase ratio. From the text:
Determination of EC50 Values of PPAR Agonists in the Cellular PPARgamma Assay
A transient transfection system is employed to determine the cellular PPARgamma activity of PPAR agonists. It is based on the use of a luciferase reporter plasmid (pGL3basic-5xGAL4-TK) and of a PPARgamma expression plasmid (pcDNA3-GAL4-humanPPARgammaLBD). Both plasmids are transiently transfected into human embryonic kidney cells (HEK cells). There is then expression in these cells of the fusion protein GAL4-humanPPARgammaLBD which binds to the GAL4 binding sites of the reporter plasmid. In the presence of a PPARgamma-active ligand, the activated fusion protein GAL4-humanPPARgammaLBD induces expression of the luciferase reporter gene, which can be detected in the form of a chemiluminescence signal after addition of a luciferase substrate. As a difference from the stably transfected PPARalpha reporter cell line, in the cellular PPARgamma assay the two components (luciferase reporter plasmid and PPARgamma expression plasmid) are transiently transfected into HEK cells because stable and permanent expression of the PPARgamma fusion protein is cytotoxic.
The luciferase reporter plasmid pGL3basic-5xGAL4-TK is based on the vector pGL3basic from Promega. The reporter plasmid is prepared by cloning five binding sites of the yeast transcription factor GAL4 (each binding site with the sequence 5′-CTCGGAGGACAGTACTCCG-3′), together with a 160 bp-long thymidine kinase promoter section (Genbank Accession #AF027128) 5′-upstream into pGL3basic. 3′-downstream of the thymidine kinase promoter is the complete luciferase gene from Photinus pyralis (Genbank Accession #M15077), which is already a constituent of the plasmid pGL3basic used. The cloning and sequencing of the reporter plasmid pGL3basic-5xGAL4-TK took place in analogy to the description in Sambrook J. et. al. (Molecular cloning, Cold Spring Harbor Laboratory Press, 1989).
The PPARgamma expression plasmid pcDNA3-GAL4-humanPPARgammaLBD was prepared by first cloning the cDNA coding for amino acids 1-147 of the yeast transcription factor GAL4 (Genbank Accession #P04386) into the plasmid pcDNA3 (from Invitrogen) 3′-downstream of the cytomegalovirus promoter. Subsequently, the cDNA of the ligand-binding domain (LBD) of the human PPARgamma receptor (amino acids I152-Y475; Accession #g1480099) 3′-downstream of the GAL4 DNA binding domain was cloned. Cloning and sequencing of the PPARgamma expression plasmid pcDNA3-GAL4-humanPPARgammaLBD again took place in analogy to the description in Sambrook J. et. al. (Molecular cloning, Cold Spring Harbor Laboratory Press, 1989). Besides the luciferase reporter plasmid pGL3basic-5xGAL4-TK and the PPARgamma expression plasmid pcDNA3-GAL4-humanPPARgammaLBD, also used for the cellular PPARgamma assay are the reference plasmid pRL-CMV (from Promega) and the plasmid pBluescript SK(+) from Stratagene. All four plasmids were prepared using a plasmid preparation kit from Qiagen, which ensured a plasmid quality with a minimal endotoxin content, before transfection into HEK cells.
The activity of PPARgamma agonists is determined in a 4-day assay which is described below. Before the transfection, HEK cells are cultivated in DMEM medium (#41965-039, Invitrogen) which is mixed with the following additions: 10% FCS (#16000-044, Invitrogen), 1% penicillin-streptomycin solution (#15140-122, Invitrogen) and 2 mM L-glutamine (#25030-024, Invitrogen).
A transfection mixture (solution A) which contains all four plasmids previously described in a DMEM medium, is prepared. The following amounts are used to make up 3 ml of solution A for each 96-well microtiter plate for an assay: 2622 μl of antibiotic- and serum-free DMEM medium (#41965-039, Invitrogen), 100 μl of reference plasmid pRL-CMV (1 ng/μl), 100 μl of luciferase reporter plasmid pGL3basic-5xGAL4-TK (10 ng/μl), 100 μl of PPARgamma expression plasmid pcDNA3-GAL4-humanPPARgammaLBD (100 ng/μl) and 78 μl of plasmid pBluescript SK(+) (500 ng/μl). […]

A further assay has as its target T2, human PPARalpha (Homo sapiens, UniProt Q07869).
T2 construct: human PPARalpha receptor (amino acids S167-Y468); expressed in transfected cells; host or cells: HEK cells, stably transfected (pcDNA3 construct)
T2 sequence (Q07869 167-468): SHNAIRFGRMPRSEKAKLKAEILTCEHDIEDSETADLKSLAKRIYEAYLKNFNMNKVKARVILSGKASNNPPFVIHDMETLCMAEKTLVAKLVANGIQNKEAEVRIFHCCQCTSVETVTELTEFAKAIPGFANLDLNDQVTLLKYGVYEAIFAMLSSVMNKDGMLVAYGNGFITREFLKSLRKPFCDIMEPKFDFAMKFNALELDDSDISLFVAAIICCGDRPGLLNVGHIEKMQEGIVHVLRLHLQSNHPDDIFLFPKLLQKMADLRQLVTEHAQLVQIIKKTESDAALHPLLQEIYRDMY
The assay can be described thus: Cellular PPARalpha assay (stably transfected HEK luciferase reporter cell line). Format: cell-based. Conditions: PPARalpha reporter cell line (HEK, GR-GAL4-humanPPARalpha-LBD), 24 h incubation. As for the experimental part:
Determination of EC50 Values of PPAR Agonists in the Cellular PPARalpha Assay
The potency of substances which bind to human PPARalpha and activate it in an agonistic manner is analyzed using a stably transfected HEK cell line (HEK=human embryonic kidney) which is referred to here as PPARalpha reporter cell line. It contains two genetic elements, a luciferase reporter element (pdeltaM-GAL4-Luc-Zeo) and a PPARalpha fusion protein (GR-GAL4-humanPPARalpha-LBD) which mediates expression of the luciferase reporter element depending on a PPARalpha ligand. The stably and constitutively expressed fusion protein GR-GAL4-humanPPARalpha-LBD binds in the cell nucleus of the PPARalpha reporter cell line via the GAL4 protein portion to the GAL4 DNA binding motifs 5′-upstream of the luciferase reporter element which is stably integrated in the genome of the cell line. There is only little expression of the luciferase reporter gene without addition of a PPARalpha ligand if fatty acid-depleted fetal calf serum (cs-FCS) is used in the assay. PPARalpha ligands bind and activate the PPARalpha fusion protein and thereby bring about expression of the luciferase reporter gene. The luciferase which is formed can be detected by means of chemiluminescence via an appropriate substrate.
The PPARalpha reporter cell line was prepared in two steps. Firstly, the luciferase reporter element was constructed and stably transfected into HEK cells. For this purpose, five binding sites of the yeast transcription factor GAL4 (in each case 5′-CGGAGTACTGTCCTCCGAG-3′) were cloned in 5′-upstream of a 68 bp-long minimal MMTV promoter (Genbank Accession #V01175). The minimal MMTV promoter section contains a CCAAT box and a TATA element in order to enable efficient transcription by RNA polymerase II. The cloning and sequencing of the GAL4-MMTV construct took place in analogy to the description of Sambrook J. et. al. (Molecular cloning, Cold Spring Harbor Laboratory Press, 1989). Then the complete Photinus pyralis luciferase gene (Genbank Accession #M15077) was cloned in 3′-downstream of the GAL4-MMTV element. After sequencing, the luciferase reporter element consisting of five GAL4 binding sites, MMTV promoter and luciferase gene was subcloned into a plasmid which confers zeozin resistance in order to obtain the plasmid pdeltaM-GAL4-Luc-Zeo. This vector was transfected into HEK cells in accordance with the statements in Ausubel, F. M. et al. (Current protocols in molecular biology, Vol. 1-3, John Wiley & Sons, Inc., 1995).
In a second step, the PPARalpha fusion protein (GR-GAL4-humanPPARalpha-LBD) was introduced into the stable cell clone described. For this purpose, initially the cDNA coding for the N-terminal 76 amino acids of the glucocorticoid receptor (Genbank Accession #P04150) was linked to the cDNA section coding for amino acids 1-147 of the yeast transcription factor GAL4 (Genbank Accession #P04386). The cDNA of the ligand-binding domain of the human PPARalpha receptor (amino acids S167-Y468; Genbank Accession #S74349) was cloned in at the 3′ end of this GR-GAL4 construct. The fusion construct prepared in this way (GR-GAL4-humanPPARalpha-LBD) was subcloned into the plasmid pcDNA3 (from Invitrogen) in order to enable constitutive expression therein by the cytomegalovirus promoter. This plasmid was linearized with a restriction endonuclease and stably transfected into the previously described cell clone containing the luciferase reporter element. The finished PPARalpha reporter cell line which contains a luciferase reporter element and constitutively expresses the PPARalpha fusion protein (GR-GAL4-humanPPARalpha-LBD) was isolated by selection with zeozin (0.5 mg/ml) and G418 (0.5 mg/ml).
The activity of PPARalpha agonists is determined in a 3-day assay which is described below: […]

pEC50: −log10 of the molar value.

`Cc1ccc(-c2nc(COCCCOCc3cccc(C)c3C(=O)O)c(C3CCCCC3)o2)cc1` [Example 22, 2-Methyl-6-{3-[5-cyclohexyl-2-p-tolyloxazol-4-ylmethoxy]propoxymethyl}benzoic acid]: the pEC50 was 6.15 on human PPARgamma and 7.66 on human PPARalpha.
In the case of `COc1cccc(-c2nc(COCC(C)(C)COCc3cccc(C)c3C(=O)O)c(C)o2)c1` [Example 27, 2-{3-[2-(3-Methoxyphenyl)-5-methyloxazol-4-ylmethoxy]-2,2-dimethylpropoxymethyl}-6-methylbenzoic acid], the pEC50 on human PPARgamma is 6.41; at human PPARalpha, 7.89.
The like results for `Cc1cccc(COCCCOCc2coc(-c3ccccc3)n2)c1C(=O)O` [*, reference compound] were, in that order, under 5.00 and 9.00.
In the same order, the values of `Cc1cccc(COCCCOCc2nc(-c3ccc(-c4ccccc4)cc3)oc2C)c1C(=O)O` [Example 3, 2-Methyl-6-[3-(5-methyl-2-p-biphenyloxazol-4-ylmethoxy)propoxymethyl]benzoic acid] are 6.82 and 8.38.
For `Cc1cccc(COCCCCOCc2nc(-c3ccc(-c4ccccc4)cc3)oc2C)c1C(=O)O` [Example 33, 2-Methyl-6-[4-(2-p-biphenyl-5-methyloxazol-4-ylmethoxy)butoxymethyl]benzoic acid], the pEC50 was 7.85 on human PPARgamma and 7.68 on human PPARalpha.
`CCc1oc(-c2cccc(OC)c2)nc1COCCCOCc1cccc(C)c1C(=O)O` [Example 17]: the pEC50 on human PPARgamma was 7.04; on human PPARalpha, 8.43.
With `Cc1ccc(-c2nc(COCCCOCc3cccc(C)c3C(=O)O)c(-c3ccccc3)o2)cc1` [Example 23, 2-Methyl-6-[3-(5-phenyl-2-p-tolyloxazol-4-ylmethoxy)propoxymethyl]benzoic acid], the pEC50 is 5.74 on human PPARgamma and 7.06 on human PPARalpha.
In the same order, the values of `Cc1cccc(COCCCCOCc2nc(-c3cccc(C(F)(F)F)c3)oc2C(C)C)c1C(=O)O` [Example 32, 2-{4-[5-Isopropyl-2-(3-trifluoromethylphenyl)oxazol-4-ylmethoxy]butoxymethyl}-6-methylbenzoic acid] are 7.14 and 8.80.
The like results for `COc1ccc(-c2nc(COCCCOCc3cccc(C)c3C(=O)O)c(C)o2)cc1OC` [Example 11, 2-Methyl-6-{3-[5-methyl-2-(3,4-dimethoxyphenyl)oxazol-4-ylmethoxy]propoxymethyl}-benzoic acid] were, in that order, 6.20 and 8.06.
In the same order, the values of `COc1cccc(-c2nc(COCCCCOCc3cccc(C)c3C(=O)O)c(C)o2)c1` [Example 31, 2-Methyl-6-{4-[2-(3-methoxyphenyl)-5-methyloxazol-4-ylmethoxy]butoxymethyl}-benzoic acid] are 7.77 and 8.85.
As for `Cc1cccc(COCCCOCc2nc(-c3ccc(Oc4ccccc4)cc3)oc2C)c1C(=O)O` [Example 8, 2-Methyl-6-{3-[5-methyl-2-(4-phenoxyphenyl)oxazol-4-ylmethoxy]propoxymethyl}-benzoic acid], the negative-log EC50 (pEC50) at human PPARgamma is 7.40; on human PPARalpha, 7.96.
